Assay results taken from publication PMC9476189 (ACS Omega, 2022).
“Also recorded” adds a separate entry of the source.

Assays:
AChE = AChE (Homo sapiens, UniProt P22303); conditions: mean ± SEM, triplicate; for IC50: read-out: AChE inhibition, IC50
urease = urease (Canavalia ensiformis, UniProt P07374); conditions: mean ± SEM, triplicate
α-glucosidase = α-glucosidase (Saccharomyces cerevisiae, UniProt P53341); experiment: α-Glucosidase assay; type: biochemical; conditions: for α-glucosidase inhibition, inhibition (%) at 0.5 mM / IC50: mean ± SEM, triplicate; for IC50: read-out: α-glucosidase inhibition, IC50
Chain of α-glucosidase (P53341 whole entry): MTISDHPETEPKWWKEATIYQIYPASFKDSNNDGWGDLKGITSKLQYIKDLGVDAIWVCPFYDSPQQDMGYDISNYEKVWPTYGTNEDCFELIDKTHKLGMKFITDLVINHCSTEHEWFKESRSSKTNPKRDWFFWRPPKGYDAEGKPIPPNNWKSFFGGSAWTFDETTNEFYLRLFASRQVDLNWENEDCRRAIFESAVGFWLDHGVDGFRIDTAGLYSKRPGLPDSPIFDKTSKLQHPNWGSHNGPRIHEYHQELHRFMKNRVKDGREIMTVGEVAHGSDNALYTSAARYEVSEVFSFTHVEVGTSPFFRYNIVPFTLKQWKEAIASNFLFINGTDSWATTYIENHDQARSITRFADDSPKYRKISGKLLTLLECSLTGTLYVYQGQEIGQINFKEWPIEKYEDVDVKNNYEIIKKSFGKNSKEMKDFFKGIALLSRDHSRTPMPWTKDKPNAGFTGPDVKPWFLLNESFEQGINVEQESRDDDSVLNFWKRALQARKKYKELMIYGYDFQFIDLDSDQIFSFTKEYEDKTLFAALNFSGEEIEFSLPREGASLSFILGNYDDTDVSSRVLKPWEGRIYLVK

LOX = target: T1, LOX (Glycine max, UniProt P08170); experiment: Lipoxygenase assay; type: biochemical; conditions: mean ± SEM, triplicate
T1 sequence (P08170 1-839): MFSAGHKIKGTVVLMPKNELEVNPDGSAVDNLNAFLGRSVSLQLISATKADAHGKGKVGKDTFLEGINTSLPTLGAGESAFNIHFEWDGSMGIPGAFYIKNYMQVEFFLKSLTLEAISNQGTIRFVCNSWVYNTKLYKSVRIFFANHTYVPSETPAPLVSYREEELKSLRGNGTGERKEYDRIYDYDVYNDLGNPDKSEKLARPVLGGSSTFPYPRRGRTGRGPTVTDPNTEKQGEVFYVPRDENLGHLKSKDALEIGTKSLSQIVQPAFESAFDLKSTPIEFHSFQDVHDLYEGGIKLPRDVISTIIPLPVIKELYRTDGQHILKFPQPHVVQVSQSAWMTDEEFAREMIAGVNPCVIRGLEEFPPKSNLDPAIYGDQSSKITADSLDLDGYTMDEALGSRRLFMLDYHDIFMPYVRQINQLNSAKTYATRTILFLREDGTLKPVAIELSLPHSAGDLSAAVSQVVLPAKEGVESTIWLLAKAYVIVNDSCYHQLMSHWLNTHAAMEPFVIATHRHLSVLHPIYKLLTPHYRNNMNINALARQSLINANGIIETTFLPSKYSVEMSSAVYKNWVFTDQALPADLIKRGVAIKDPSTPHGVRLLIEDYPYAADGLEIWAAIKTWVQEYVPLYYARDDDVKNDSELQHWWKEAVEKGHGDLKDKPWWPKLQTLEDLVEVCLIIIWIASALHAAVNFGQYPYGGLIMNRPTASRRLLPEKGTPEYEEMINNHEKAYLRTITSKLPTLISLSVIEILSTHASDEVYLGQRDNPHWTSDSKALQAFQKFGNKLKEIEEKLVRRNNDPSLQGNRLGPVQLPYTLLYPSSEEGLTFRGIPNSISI

BChE = BChE (Homo sapiens, UniProt P06276); conditions: 0.5 mM; mean ± SEM, triplicate
Chain of BChE (P06276 29-602, species assumed): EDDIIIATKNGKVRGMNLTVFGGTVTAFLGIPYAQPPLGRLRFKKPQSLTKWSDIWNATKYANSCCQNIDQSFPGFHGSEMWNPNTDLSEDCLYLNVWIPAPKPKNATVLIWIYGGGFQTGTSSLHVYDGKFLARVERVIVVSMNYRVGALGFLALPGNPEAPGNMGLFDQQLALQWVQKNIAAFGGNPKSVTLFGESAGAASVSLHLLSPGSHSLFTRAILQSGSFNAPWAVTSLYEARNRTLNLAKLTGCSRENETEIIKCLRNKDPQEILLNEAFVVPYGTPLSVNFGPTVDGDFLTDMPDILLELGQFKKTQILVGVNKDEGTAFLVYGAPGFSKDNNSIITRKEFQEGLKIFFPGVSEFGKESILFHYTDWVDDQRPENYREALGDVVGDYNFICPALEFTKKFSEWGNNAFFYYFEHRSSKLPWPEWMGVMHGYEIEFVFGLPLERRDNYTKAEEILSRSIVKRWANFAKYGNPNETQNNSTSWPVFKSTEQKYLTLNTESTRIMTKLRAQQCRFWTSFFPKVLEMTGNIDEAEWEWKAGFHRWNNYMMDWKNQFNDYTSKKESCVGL

Chain of urease (P07374 whole entry, looked up): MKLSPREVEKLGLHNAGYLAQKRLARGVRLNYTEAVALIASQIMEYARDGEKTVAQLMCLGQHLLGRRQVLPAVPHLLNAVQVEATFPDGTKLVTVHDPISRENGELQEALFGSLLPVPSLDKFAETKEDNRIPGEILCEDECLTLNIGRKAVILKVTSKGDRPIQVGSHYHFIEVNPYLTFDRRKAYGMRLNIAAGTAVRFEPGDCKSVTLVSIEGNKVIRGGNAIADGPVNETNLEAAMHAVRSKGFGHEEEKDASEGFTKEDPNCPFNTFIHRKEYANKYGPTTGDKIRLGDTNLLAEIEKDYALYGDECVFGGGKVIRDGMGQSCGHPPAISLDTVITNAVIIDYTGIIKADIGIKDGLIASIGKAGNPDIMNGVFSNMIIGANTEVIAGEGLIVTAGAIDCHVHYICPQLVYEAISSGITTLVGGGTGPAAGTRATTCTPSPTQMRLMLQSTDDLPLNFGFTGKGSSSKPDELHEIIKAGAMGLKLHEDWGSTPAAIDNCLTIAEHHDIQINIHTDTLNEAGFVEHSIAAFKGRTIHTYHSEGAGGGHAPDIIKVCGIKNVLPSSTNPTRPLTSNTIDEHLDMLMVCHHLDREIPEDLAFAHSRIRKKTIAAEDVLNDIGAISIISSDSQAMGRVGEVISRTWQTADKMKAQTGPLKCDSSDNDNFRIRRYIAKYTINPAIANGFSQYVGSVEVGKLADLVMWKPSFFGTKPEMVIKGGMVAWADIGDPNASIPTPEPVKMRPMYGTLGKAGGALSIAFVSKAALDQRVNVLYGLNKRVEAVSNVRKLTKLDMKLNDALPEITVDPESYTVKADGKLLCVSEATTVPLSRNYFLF
Chain of AChE (P22303 32-614): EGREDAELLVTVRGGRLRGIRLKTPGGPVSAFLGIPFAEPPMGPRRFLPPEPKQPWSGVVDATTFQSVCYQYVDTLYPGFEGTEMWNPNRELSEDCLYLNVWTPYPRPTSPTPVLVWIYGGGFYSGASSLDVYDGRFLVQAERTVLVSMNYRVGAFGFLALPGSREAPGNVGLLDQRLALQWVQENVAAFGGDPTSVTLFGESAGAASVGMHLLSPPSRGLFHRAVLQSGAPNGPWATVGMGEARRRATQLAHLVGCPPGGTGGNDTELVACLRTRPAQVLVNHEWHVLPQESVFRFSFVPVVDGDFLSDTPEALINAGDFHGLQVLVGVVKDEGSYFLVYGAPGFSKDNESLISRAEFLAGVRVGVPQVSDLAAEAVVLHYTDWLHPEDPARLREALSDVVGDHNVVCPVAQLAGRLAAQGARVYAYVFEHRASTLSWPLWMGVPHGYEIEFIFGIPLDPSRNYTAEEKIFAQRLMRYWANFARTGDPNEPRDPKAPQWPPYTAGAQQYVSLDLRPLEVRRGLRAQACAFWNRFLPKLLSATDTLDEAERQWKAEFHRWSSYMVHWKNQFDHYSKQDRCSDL

| Compound | AChE inhibition, inhibition (%) at 0.5 mM (AChE) [%] | IC50 (AChE) [µM] | urease inhibition, inhibition (%) at 0.25 mM (urease) [%] | activity against α-glucosidase enzyme (in words) (α-glucosidase) | α-glucosidase inhibition, inhibition (%) at 0.5 mM (α-glucosidase) [%] | IC50 (α-glucosidase) [µM] | LOX inhibition, inhibition (%) at 0.25 mM (LOX) [%] | BChE inhibition, inhibition (%) at 0.5 mM (BChE) [%] | IC50 (urease; read-out: urease inhibition, IC50) [µM] | IC50 (LOX; read-out: LOX inhibition, IC50) [µM] |
| --- | --- | --- | --- | --- | --- | --- | --- | --- | --- | --- |
| CCc1cccc(C)c1NC(=O)CSc1nnc(C2CCN(S(=O)(=O)c3ccc(C)cc3)CC2)n1C [Compound 12n, 1-(4-toluenesulfonyl)-4-{3-[N-(2-ethyl-6-methylphenyl)-2-ethanamoylthio]-4-methyl-4H-1,2,4-triazol-5-yl} piperidine] | 61.53 ± 0.65 | 328.1 ± 0.45 | 32.85 ± 1.39 | excellent activity; also recorded: most active compound | 92.65 ± 1.64 | 29.4 ± 1.32 | 35.65 ± 0.49 | 36.24 ± 0.59 |  |  |
| Cc1ccc(S(=O)(=O)N2CCC(c3nnc(SCC(=O)Nc4c(C)cccc4[N+](=O)[O-])n3C)CC2)cc1 [Compound 12o, 1-(4-toluenesulfonyl)-4-{3-[N-(2-methyl-6-nitrophenyl)-2-ethanamoylthio]-4-methyl-4H-1,2,4-triazol-5-yl} piperidine] | 81.53 ± 0.96 | 129.6 ± 0.73 | 56.35 ± 1.67 |  | 72.23 ± 1.51 | 285.6 ± 1.23 | 64.28 ± 0.73 | 39.65 ± 0.42 | 241.8 ± 0.42 | 93.81 ± 0.34 |
